Source: ChEMBL document CHEMBL1143809, “New bis-N9-(methylphenylmethyl)purine derivatives: synthesis and antitumor activity” (2007)

Legend:
Format in all cases: functional
DU-145 = test: Growth inhibition of human DU145 cells after 48 hrs by SRB protein assay; settings: DU-145, 48 h; for CC50: read-out: LC50 (the source's name)
EKVX = test: Growth inhibition of human EKVX cells after 48 hrs by SRB protein assay
HOP-62 = test: Growth inhibition of human HOP62 cells after 48 hrs by SRB protein assay; settings: HOP-62, 48 h
786-0 = test: Growth inhibition of human 786-0 cells after 48 hrs by SRB protein assay; settings: 786-0, 48 h; for CC50: read-out: LC50 (the source's name)
UACC-62 = test: Growth inhibition of human UACC62 cells after 48 hrs by SRB protein assay; settings: UACC-62, 48 h
SK-MEL-5 = test: Growth inhibition of human SK-MEL-5 cells after 48 hrs by SRB protein assay; settings: SK-MEL-5, 48 h
HT-29 = test: Growth inhibition of human HT29 cells after 48 hrs by SRB protein assay; settings: HT-29, 48 h
PC-3 = test: Growth inhibition of human PC3 cells after 48 hrs by SRB protein assay; settings: PC-3, 48 h; for CC50: read-out: LC50 (the source's name)
MDA-MB-231 = test: Growth inhibition of human MDA-MB-231 cells after 48 hrs by SRB protein assay; settings: MDA-MB-231, 48 h
SF-539 = test: Growth inhibition of human SF539 cells after 48 hrs by SRB protein assay; settings: SF-539, 48 h
MCF7 [1] = test: Growth inhibition of human MCF7 cells after 48 hrs by SRB protein assay; settings: MCF7, 48 h
TK-10 = test: Growth inhibition of human TK10 cells after 48 hrs by SRB protein assay; settings: TK-10, 48 h
SF-268 = test: Anticancer activity against human SF268 cells assessed as growth at 100 uM after 48 hrs by SRB protein assay relative to control; settings: SF-268, 48 h, read-out: Activity
T47D = test: Growth inhibition of human T47D cells after 48 hrs by SRB protein assay
[2] = Growth inhibition of human NCL-H23 cells after 48 hrs by SRB protein assay; settings: NCL-H23, 48 h
UACC-257 = test: Growth inhibition of human UACC257 cells after 48 hrs by SRB protein assay; settings: UACC-257, 48 h; for CC50: read-out: LC50 (the source's name)
NCI-H460 = test: Growth inhibition of human NCL-H460 cells after 48 hrs by SRB protein assay; settings: NCI-H460, 48 h; for CC50: read-out: LC50 (the source's name)
CAKI-1 = test: Growth inhibition of human CAKI1 cells after 48 hrs by SRB protein assay; settings: CAKI-1, 48 h; for CC50: read-out: LC50 (the source's name)
BT-549 = test: Growth inhibition of human BT549 cells after 48 hrs by SRB protein assay; settings: BT-549, 48 h; for CC50: read-out: LC50 (the source's name)
U-251 = test: Growth inhibition of human U251 cells after 48 hrs by SRB protein assay; settings: U-251, 48 h; for CC50: read-out: LC50 (the source's name)
OVCAR-8 = test: Growth inhibition of human OVCAR8 cells after 48 hrs by SRB protein assay; settings: OVCAR-8, 48 h
MOLT-4 = test: Growth inhibition of human MOLT4 cells after 48 hrs by SRB protein assay; settings: MOLT-4, 48 h
[3] = Growth inhibition of human NCL-H522 cells after 48 hrs by SRB protein assay; settings: NCL-H522, 48 h
[4] = Growth inhibition of human NCL-H226 cells after 48 hrs by SRB protein assay; settings: NCL-H226, 48 h
SN12C = test: Growth inhibition of human SN12C cells after 48 hrs by SRB protein assay
MCF7 [5] = test: Anticancer activity against human MCF7 cells assessed as growth at 100 uM after 48 hrs by SRB protein assay relative to control; settings: MCF7, 48 h, read-out: Activity
HCT-15 = test: Growth inhibition of human HCT15 cells after 48 hrs by SRB protein assay; settings: HCT-15, 48 h
[6] = Growth inhibition of human LOX MIVI cells after 48 hrs by SRB protein assay
SNB-19 = test: Growth inhibition of human SNB19 cells after 48 hrs by SRB protein assay; settings: SNB-19, 48 h; for CC50: read-out: LC50 (the source's name)
KM12 = test: Growth inhibition of human KM12 cells after 48 hrs by SRB protein assay; settings: KM12, 48 h
M14 = test: Growth inhibition of human M14 cells after 48 hrs by SRB protein assay; settings: M14, 48 h
K562 = test: Growth inhibition of human K562 cells after 48 hrs by SRB protein assay; settings: K562, 48 h; for CC50: read-out: LC50 (the source's name)
A549 = test: Growth inhibition of human A549 cells after 48 hrs by SRB protein assay; settings: A549, 48 h
[7] = Growth inhibition of human NCL-H322M cells after 48 hrs by SRB protein assay; settings: for CC50: read-out: LC50 (the source's name)

Clc1nc(Cl)c2ncn(Cc3ccc(Cn4cnc5c(Cl)nc(Cl)nc54)cc3)c2n1
GI50 (DU-145): < 0.01 µM
TGI (DU-145): 4.16 µM
CC50 (DU-145): 26.3 µM
GI50 (EKVX): < 0.01 µM
LC50 (EKVX): 44.7 µM
TGI (EKVX): 19.9 µM
LC50 (HOP-62): 51.3 µM
TGI (HOP-62): 26.3 µM
GI50 (786-0): 14.5 µM
TGI (786-0): 27.5 µM
CC50 (786-0): 52.5 µM
GI50 (UACC-62): 13.8 µM
LC50 (concentration killing 50% of cells) (UACC-62): 51.3 µM
TGI (UACC-62): 26.9 µM
GI50 (SK-MEL-5): 10.7 µM
LC50 (SK-MEL-5): 47.9 µM
TGI (SK-MEL-5): 22.9 µM
GI50 (HT-29): < 0.01 µM
LC50 (HT-29): 39.8 µM
TGI (HT-29): 15.8 µM
GI50 (PC-3): 12.9 µM
TGI (PC-3): 25.7 µM
CC50 (PC-3): 50.1 µM
LC50 (50% lethal concentration) (MDA-MB-231): 46.8 µM
TGI (MDA-MB-231): 21.9 µM
LC50 (SF-539): 37.1 µM
TGI (SF-539): 13.8 µM
GI50 (MCF7 [1]): 10.5 µM
LC50 (MCF7 [1]): 61.7 µM
TGI (MCF7 [1]): 25.1 µM
GI50 (TK-10): 13.2 µM
LC50 (50% lethal concentration) (TK-10): 51.3 µM
TGI (TK-10): 26.3 µM
growth at 100 µM (SF-268): 58%
GI50 (T47D): 1.62 µM
LC50 (T47D): 42.6 µM
TGI (T47D): 13.5 µM
GI50 [2]: 13.8 µM
LC50 [2]: 51.3 µM
TGI [2]: 26.9 µM
TGI (UACC-257): 25.1 µM
CC50 (UACC-257): 50.1 µM
GI50 (NCI-H460): 14.1 µM
TGI (NCI-H460): 26.9 µM
CC50 (NCI-H460): 52.5 µM
GI50 (CAKI-1): 15.8 µM
TGI (CAKI-1): 30.2 µM
CC50 (CAKI-1): 57.5 µM
GI50 (BT-549): < 0.01 µM
TGI (BT-549): 19.1 µM
CC50 (BT-549): 43.6 µM
GI50 (U-251): 13.8 µM
TGI (U-251): 26.9 µM
CC50 (U-251): 51.3 µM
GI50 (OVCAR-8): 3.02 µM
LC50 (OVCAR-8): 49 µM
TGI (OVCAR-8): 8.13 µM
GI50 (MOLT-4): 7.94 µM
LC50 (MOLT-4): 45.7 µM
TGI (MOLT-4): 20.9 µM
GI50 [3]: 12.3 µM
LC50 [3]: 52.5 µM
TGI [3]: 25.7 µM
GI50 [4]: 17 µM
LC50 [4]: 93.3 µM
TGI [4]: 39.8 µM
GI50 (SN12C): 14.1 µM
LC50 (SN12C): 52.5 µM
TGI (SN12C): 27.5 µM
growth at 100 µM (MCF7 [5]): 0%
GI50 (HCT-15): 13.2 µM
LC50 (HCT-15): 51.3 µM
TGI (HCT-15): 25.7 µM
GI50 [6]: 2.88 µM
LC50 [6]: 41.7 µM
TGI [6]: 17.4 µM
TGI (SNB-19): 21.9 µM
CC50 (SNB-19): 46.8 µM
GI50 (KM12): 14.1 µM
LC50 (concentration killing 50% of cells) (KM12): 52.5 µM
TGI (KM12): 27.5 µM
LC50 (M14): 52.5 µM
TGI (M14): 27.5 µM
GI50 (K562): 2.88 µM
TGI (K562): 16.6 µM
CC50 (K562): 40.7 µM
LC50 (A549): 50.1 µM
TGI (A549): 25.1 µM
TGI [7]: 33.9 µM
CC50 [7]: 91.2 µM

Clc1nc(Cl)c2ncn(Cc3ccccc3Cn3cnc4c(Cl)nc(Cl)nc43)c2n1
GI50 (DU-145): 1 µM
TGI (DU-145): 2.51 µM
CC50 (DU-145): 6.46 µM
GI50 (EKVX): 1.02 µM
LC50 (EKVX): 6.76 µM
TGI (EKVX): 2.63 µM
GI50 (HOP-62): 21.9 µM
LC50 (HOP-62): 72.4 µM
TGI (HOP-62): 39.8 µM
GI50 (786-0): 10 µM
TGI (786-0): 25.1 µM
CC50 (786-0): 63.1 µM
GI50 (UACC-62): 1.74 µM
LC50 (concentration killing 50% of cells) (UACC-62): 6.61 µM
TGI (UACC-62): 3.39 µM
GI50 (SK-MEL-5): 2.24 µM
LC50 (SK-MEL-5): 22.9 µM
TGI (SK-MEL-5): 6.17 µM
GI50 (HT-29): 3.31 µM
LC50 (HT-29): > 100 µM
TGI (HT-29): > 100 µM
GI50 (PC-3): 2.24 µM
TGI (PC-3): 6.76 µM
CC50 (PC-3): 38.9 µM
GI50 (MDA-MB-231): 1.82 µM
LC50 (50% lethal concentration) (MDA-MB-231): 6.46 µM
TGI (MDA-MB-231): 3.39 µM
LC50 (SF-539): 0.49 µM
TGI (SF-539): 0.14 µM
GI50 (MCF7 [1]): 1.55 µM
LC50 (MCF7 [1]): > 100 µM
TGI (MCF7 [1]): 4.57 µM
GI50 (TK-10): 2.69 µM
LC50 (50% lethal concentration) (TK-10): 28.8 µM
TGI (TK-10): 7.94 µM
growth at 100 µM (SF-268): 0%
GI50 (T47D): 2.19 µM
LC50 (T47D): > 100 µM
TGI (T47D): 5.89 µM
GI50 [2]: 15.5 µM
LC50 [2]: 67.6 µM
TGI [2]: 32.4 µM
GI50 (UACC-257): 7.94 µM
TGI (UACC-257): 23.4 µM
CC50 (UACC-257): 61.7 µM
GI50 (NCI-H460): 3.98 µM
TGI (NCI-H460): 17.4 µM
CC50 (NCI-H460): 89.1 µM
GI50 (CAKI-1): 1.73 µM
TGI (CAKI-1): 3.09 µM
CC50 (CAKI-1): 5.62 µM
GI50 (BT-549): 0.17 µM
TGI (BT-549): 1.51 µM
CC50 (BT-549): 5.01 µM
GI50 (U-251): 1.78 µM
TGI (U-251): 3.55 µM
CC50 (U-251): 69.2 µM
GI50 (OVCAR-8): 3.02 µM
LC50 (OVCAR-8): 49 µM
TGI (OVCAR-8): 8.13 µM
GI50 (MOLT-4): 1.66 µM
LC50 (MOLT-4): 8.13 µM
TGI (MOLT-4): 3.63 µM
GI50 [3]: 3.39 µM
LC50 [3]: > 100 µM
TGI [3]: 9.12 µM
GI50 [4]: 3.09 µM
LC50 [4]: 26.9 µM
TGI [4]: 7.24 µM
GI50 (SN12C): 2.51 µM
LC50 (SN12C): 26.9 µM
TGI (SN12C): 6.61 µM
growth at 100 µM (MCF7 [5]): 0%
GI50 (HCT-15): 1.86 µM
LC50 (HCT-15): 12.6 µM
TGI (HCT-15): 4.47 µM
GI50 [6]: 1.15 µM
LC50 [6]: 6.61 µM
TGI [6]: 2.75 µM
GI50 (SNB-19): 3.98 µM
TGI (SNB-19): > 100 µM
CC50 (SNB-19): > 100 µM
GI50 (KM12): 3.31 µM
LC50 (concentration killing 50% of cells) (KM12): 34.7 µM
TGI (KM12): 10 µM
GI50 (M14): 15.8 µM
LC50 (M14): 61.7 µM
TGI (M14): 38.9 µM
GI50 (K562): 1.95 µM
TGI (K562): 4.47 µM
CC50 (K562): 15.5 µM
GI50 (A549): 4.79 µM
LC50 (A549): > 100 µM
TGI (A549): 20.4 µM
GI50 [7]: 14.5 µM
TGI [7]: 27.5 µM
CC50 [7]: 52.5 µM
